Laboratory results reported in ChEMBL document CHEMBL1275440, “In vitro activity of telavancin against resistant gram-positive bacteria” (2008).
In brackets after ≈: the same amount, converted by molar mass. Activity calls are given as the source filed them. No cut-off for these calls is given here.

Experiments:
[1] = test system: Enterococcus faecium; experiment: Antibacterial activity against vancomycin resistant Enterococcus faecium VanA clinical isolate by broth microdilution method; type: functional
[2] = test system: Streptococcus viridans; experiment: Antibacterial activity against Streptococcus viridans clinical isolate assessed as susceptibility level by broth microdilution method; type: functional
[3] = test system: Streptococcus intermedius; experiment: Antibacterial activity against Streptococcus intermedius clinical isolate by broth microdilution method; type: functional
[4] = test system: Enterococcus faecalis; experiment: Antibacterial activity against vancomycin resistant Enterococcus faecalis VanA clinical isolate by broth microdilution method; type: functional
[5] = test system: Streptococcus pneumoniae; experiment: Antibacterial activity against penicillin resistant Streptococcus pneumoniae clinical isolate by broth microdilution method; type: functional
[6] = test system: Streptococcus agalactiae; experiment: Antibacterial activity against Streptococcus agalactiae group B clinical isolate assessed as susceptibility level by broth microdilution method; type: functional
[7] = test system: Streptococcus agalactiae; experiment: Antibacterial activity against Streptococcus agalactiae group B clinical isolate by broth microdilution method; type: functional
[8] = test system: Streptococcus pyogenes; experiment: Antibacterial activity against Streptococcus pyogenes group A clinical isolate by broth microdilution method; type: functional
[9] = test system: Streptococcus mitis; experiment: Antibacterial activity against Streptococcus mitis clinical isolate assessed as susceptibility level by broth microdilution method; type: functional
[10] = test system: Enterococcus faecalis; experiment: Antibacterial activity against vancomycin resistant Enterococcus faecalis VanB clinical isolate by broth microdilution method; type: functional
[11] = test system: Streptococcus pyogenes; experiment: Antibacterial activity against Streptococcus pyogenes group A clinical isolate assessed as susceptibility level by broth microdilution method; type: functional
[12] = test system: Staphylococcus aureus; experiment: Antibacterial activity against methicillin resistant Staphylococcus aureus clinical isolate assessed as susceptibility level by broth microdilution method; type: functional
[13] = test system: Staphylococcus epidermidis; experiment: Antibacterial activity against methicillin resistant Staphylococcus epidermidis clinical isolate assessed as susceptibility level by broth microdilution method; type: functional
[14] = test system: Staphylococcus capitis; experiment: Antibacterial activity against methicillin resistant coagulase-negative Staphylococcus capitis clinical isolate assessed as susceptibility level by broth microdilution method; type: functional
[15] = test system: Staphylococcus auricularis; experiment: Antibacterial activity against methicillin resistant coagulase-negative Staphylococcus auricularis clinical isolate assessed as susceptibility level by broth microdilution method; type: functional
[16] = test system: Streptococcus mitis; experiment: Antibacterial activity against Streptococcus mitis clinical isolate by broth microdilution method; type: functional
[17] = test system: Staphylococcus haemolyticus; experiment: Antibacterial activity against methicillin resistant coagulase-negative Staphylococcus haemolyticus clinical isolate assessed as susceptibility level by broth microdilution method; type: functional
[18] = test system: Streptococcus oralis; experiment: Antibacterial activity against Streptococcus oralis clinical isolate assessed as susceptibility level by broth microdilution method; type: functional
[19] = test system: Staphylococcus auricularis; experiment: Antibacterial activity against methicillin resistant coagulase-negative Staphylococcus auricularis clinical isolate by broth microdilution method; type: functional
[20] = test system: Enterococcus faecalis
[21] = test system: Enterococcus faecium; experiment: Antibacterial activity against vancomycin resistant Enterococcus faecium VanB clinical isolate assessed as susceptibility level by broth microdilution method; type: functional
[22] = Antibacterial activity against methicillin resistant coagulase-negative Staphylococcus hominis subsp. novobiosepticus clinical isolate assessed as susceptibility level by broth microdilution method; type: functional
[23] = test system: Enterococcus faecium; experiment: Antibacterial activity against vancomycin resistant Enterococcus faecium VanB clinical isolate by broth microdilution method; type: functional
[24] = test system: Staphylococcus epidermidis; experiment: Antibacterial activity against methicillin resistant Staphylococcus epidermidis clinical isolate by broth microdilution method; type: functional
[25] = test system: Streptococcus constellatus; experiment: Antibacterial activity against Streptococcus constellatus clinical isolate by broth microdilution method; type: functional
[26] = test system: Enterococcus faecalis; experiment: Antibacterial activity against vancomycin resistant Enterococcus faecalis VanB clinical isolate assessed as susceptibility level by broth microdilution method; type: functional
[27] = test system: Staphylococcus saprophyticus; experiment: Antibacterial activity against methicillin resistant coagulase-negative Staphylococcus saprophyticus clinical isolate by broth microdilution method; type: functional
[28] = test system: Enterococcus faecalis; experiment: Antibacterial activity against vancomycin resistant Enterococcus faecalis VanA clinical isolate assessed as susceptibility level by broth microdilution method; type: functional
[29] = test system: Staphylococcus haemolyticus; experiment: Antibacterial activity against methicillin resistant coagulase-negative Staphylococcus haemolyticus clinical isolate by broth microdilution method; type: functional
[30] = test system: Streptococcus oralis; experiment: Antibacterial activity against Streptococcus oralis clinical isolate by broth microdilution method; type: functional
[31] = Antibacterial activity against methicillin resistant coagulase-negative Staphylococcus hominis subsp. novobiosepticus clinical isolate by broth microdilution method; type: functional
[32] = test system: Streptococcus viridans; experiment: Antibacterial activity against Streptococcus viridans clinical isolate by broth microdilution method; type: functional
[33] = test system: Staphylococcus aureus; experiment: Antibacterial activity against methicillin resistant Staphylococcus aureus clinical isolate by broth microdilution method; type: functional; settings: for MIC50 / MIC90: Staphylococcus aureus
[34] = test system: Enterococcus faecium; experiment: Antibacterial activity against vancomycin resistant Enterococcus faecium VanA clinical isolate assessed as susceptibility level by broth microdilution method; type: functional
[35] = test system: Staphylococcus capitis; experiment: Antibacterial activity against methicillin resistant coagulase-negative Staphylococcus capitis clinical isolate by broth microdilution method; type: functional
[36] = test system: Streptococcus pneumoniae; experiment: Antibacterial activity against penicillin intermediate Streptococcus pneumoniae clinical isolate by broth microdilution method; type: functional
[37] = test system: Streptococcus constellatus; experiment: Antibacterial activity against Streptococcus constellatus clinical isolate assessed as susceptibility level by broth microdilution method; type: functional
[38] = test system: Streptococcus intermedius; experiment: Antibacterial activity against Streptococcus intermedius clinical isolate assessed as susceptibility level by broth microdilution method; type: functional
[39] = test system: Streptococcus pneumoniae; experiment: Antibacterial activity against multidrug-resistant Streptococcus pneumoniae clinical isolate by broth microdilution method; type: functional
[40] = test system: Staphylococcus saprophyticus; experiment: Antibacterial activity against methicillin resistant coagulase-negative Staphylococcus saprophyticus clinical isolate assessed as susceptibility level by broth microdilution method; type: functional
[41] = test system: Streptococcus agalactiae; experiment: Antibacterial activity against Streptococcus agalactiae MED 2038 by broth microdilution method; type: functional
[42] = test system: Staphylococcus epidermidis; experiment: Antibacterial activity against methicillin resistant Staphylococcus epidermidis ATCC 35984 by broth microdilution method; type: functional
[43] = test system: Streptococcus pneumoniae; experiment: Antibacterial activity against penicillin intermediate Streptococcus pneumoniae clinical isolate assessed as susceptibility level by broth microdilution method; type: functional
[44] = test system: Streptococcus pyogenes; experiment: Antibacterial activity against Streptococcus pyogenes MED 2040 by broth microdilution method; type: functional

## CCCCCCCCCC(=O)N[C@@H](Cc1c[nH]c2ccccc12)C(=O)N[C@H](CC(N)=O)C(=O)N[C@@H](CC(=O)O)C(=O)N[C@@H]1C(=O)NCC(=O)N[C@@H](CCCN)C(=O)N[C@@H](CC(=O)O)C(=O)N[C@H](C)C(=O)N[C@@H](CC(=O)O)C(=O)NCC(=O)N[C@H](CO)C(=O)N[C@@H]([C@H](C)CC(=O)O)C(=O)N[C@@H](CC(=O)c2ccccc2N)C(=O)O[C@@H]1C
[1]
  MIC50: 2 µg/mL (≈ 1.23 µM)
  MIC90: 4 µg/mL (≈ 2.47 µM)
[2]
  Activity: 100%
[3]
  MIC: 0.25 µg/mL (≈ 0.154 µM)
  MIC50: inactive
  MIC90: inactive
[4]
  MIC50: 1 µg/mL (≈ 0.617 µM)
  MIC90: 2 µg/mL (≈ 1.23 µM)
[5]
  MIC50: 0.12 µg/mL (≈ 0.074 µM)
  MIC90: 0.12 µg/mL (≈ 0.074 µM)
[6]
  Activity: 100%
[7]
  MIC50: 0.25 µg/mL (≈ 0.154 µM)
  MIC90: 0.25 µg/mL (≈ 0.154 µM)
[8]
  MIC: ≤ 0.03 µg/mL
  MIC50: ≤ 0.03 µg/mL
  MIC90: 0.25 µg/mL (≈ 0.154 µM)
[9]
  Activity: 100%
[10]
  MIC: 0.5 µg/mL (≈ 0.309 µM)
[11]
  Activity: 100%
[12]
  Activity: 98%
[13]
  Activity: 100%
[14]
  Activity: 100%
[15]
  Activity: 100%
[16]
  MIC: 0.25 µg/mL (≈ 0.154 µM)
  MIC50: inactive
  MIC90: inactive
[17]
  Activity: 100%
[18]
  Activity: 100%
[19]
  MIC50: 0.25 µg/mL (≈ 0.154 µM)
  MIC90: 1 µg/mL (≈ 0.617 µM)
[20]
  MIC50: inactive
  MIC90: inactive
[21]
  Activity: 93%
[22]
  Activity: 100%
[23]
  MIC50: 2 µg/mL (≈ 1.23 µM)
  MIC90: 4 µg/mL (≈ 2.47 µM)
[24]
  MIC50: 0.5 µg/mL (≈ 0.309 µM)
  MIC90: 1 µg/mL (≈ 0.617 µM)
[25]
  MIC: 0.25 µg/mL (≈ 0.154 µM)
  MIC50: inactive
  MIC90: inactive
[26]
  Activity: 100%
[27]
  MIC50: 0.25 µg/mL (≈ 0.154 µM)
  MIC90: 1 µg/mL (≈ 0.617 µM)
[28]
  Percent of isolates susceptible: 100%
[29]
  MIC50: 0.25 µg/mL (≈ 0.154 µM)
  MIC90: 1 µg/mL (≈ 0.617 µM)
[30]
  MIC: 0.25 µg/mL (≈ 0.154 µM)
  MIC50: inactive
  MIC90: inactive
[31]
  MIC50: 0.25 µg/mL (≈ 0.154 µM)
  MIC90: 1 µg/mL (≈ 0.617 µM)
[32]
  MIC: 0.25 µg/mL (≈ 0.154 µM)
  MIC50: inactive
  MIC90: inactive
[33]
  Activity: 98%
  MIC50: 0.25 µg/mL (≈ 0.154 µM)
  MIC90: 0.5 µg/mL (≈ 0.309 µM)
[34]
  Activity: 98%
[35]
  MIC50: 0.25 µg/mL (≈ 0.154 µM)
  MIC90: 1 µg/mL (≈ 0.617 µM)
[36]
  MIC50: 0.12 µg/mL (≈ 0.074 µM)
  MIC90: 0.5 µg/mL (≈ 0.309 µM)
[37]
  Activity: 100%
[38]
  Activity: 100%
[39]
  MIC50: 0.12 µg/mL (≈ 0.074 µM)
  MIC90: 0.12 µg/mL (≈ 0.074 µM)
[40]
  Activity: 100%

## CC(=O)NC[C@H]1CN(c2ccc(N3CCOCC3)c(F)c2)C(=O)O1 [LINEZOLID]
[1]
  MIC50: 2 µg/mL (≈ 5.93 µM)
  MIC90: 2 µg/mL (≈ 5.93 µM)
[2]
  Activity: 100%
[3]
  MIC: 0.5 µg/mL (≈ 1.48 µM)
  MIC50: inactive
  MIC90: inactive
[5]
  MIC50: 1 µg/mL (≈ 2.96 µM)
  MIC90: 1 µg/mL (≈ 2.96 µM)
[6]
  Activity: 100%
[7]
  MIC50: 1 µg/mL (≈ 2.96 µM)
  MIC90: 1 µg/mL (≈ 2.96 µM)
[9]
  Activity: 100%
[10]
  MIC: 0.5 µg/mL (≈ 1.48 µM)
[41]
  MIC: 1 µg/mL (≈ 2.96 µM)
[11]
  Activity: 98%
[12]
  Activity: 99%
[42]
  MIC: 2 µg/mL (≈ 5.93 µM)
[13]
  Activity: 100%
[14]
  Activity: 100%
[15]
  Activity: 100%
[16]
  MIC: 0.5 µg/mL (≈ 1.48 µM)
  MIC50: inactive
  MIC90: inactive
[17]
  Activity: 100%
[43]
  Activity: 100%
[18]
  Activity: 100%
[19]
  MIC50: 1 µg/mL (≈ 2.96 µM)
  MIC90: 2 µg/mL (≈ 5.93 µM)
[20]
  MIC50: inactive
  MIC90: inactive
[21]
  Activity: 96%
[22]
  Activity: 100%
[23]
  MIC50: 2 µg/mL (≈ 5.93 µM)
  MIC90: 2 µg/mL (≈ 5.93 µM)
[24]
  MIC50: 1 µg/mL (≈ 2.96 µM)
  MIC90: 1 µg/mL (≈ 2.96 µM)
[25]
  MIC: 0.5 µg/mL (≈ 1.48 µM)
  MIC50: inactive
  MIC90: inactive
[26]
  Activity: 100%
[27]
  MIC50: 1 µg/mL (≈ 2.96 µM)
  MIC90: 2 µg/mL (≈ 5.93 µM)
[29]
  MIC50: 1 µg/mL (≈ 2.96 µM)
  MIC90: 2 µg/mL (≈ 5.93 µM)
[30]
  MIC: 0.5 µg/mL (≈ 1.48 µM)
  MIC50: inactive
  MIC90: inactive
[31]
  MIC50: 1 µg/mL (≈ 2.96 µM)
  MIC90: 2 µg/mL (≈ 5.93 µM)
[32]
  MIC: 0.5 µg/mL (≈ 1.48 µM)
  MIC50: inactive
  MIC90: inactive
[33]
  Activity: 99%
  MIC50: 2 µg/mL (≈ 5.93 µM)
  MIC90: 4 µg/mL (≈ 11.9 µM)
[34]
  Activity: 99%
[35]
  MIC50: 1 µg/mL (≈ 2.96 µM)
  MIC90: 2 µg/mL (≈ 5.93 µM)
[36]
  MIC50: 1 µg/mL (≈ 2.96 µM)
  MIC90: 1 µg/mL (≈ 2.96 µM)
[37]
  Activity: 100%
[38]
  Activity: 100%
[44]
  MIC: 1 µg/mL (≈ 2.96 µM)
[39]
  MIC50: 1 µg/mL (≈ 2.96 µM)
  MIC90: 1 µg/mL (≈ 2.96 µM)
[40]
  Activity: 100%
